What was measured:
Assay type in all cases: physicochemical
[1] = Dynamic vapor sorption (DVS) hygroscopicity
Description: Dynamic vapor sorption (DVS) was measured using DVS advantage (Surface Measurement Systems Ltd). The samples were tested under isotherm (25° C.) at a targeted RH of 0 to 95% full cycle in step mode. For an isotherm test, the chamber temperature is maintained by a water bath at constant 25.0±1.0° C. The relative humidity in the sample chamber is generated by combining different flows of wet and dry nitrogen with variable flow rates. The analysis was performed in 10% RH increments. Sampling rate is 1 sec save data rate is 20 sec. The dm/dt (%) value was set at 0.001 with a dm/dt window of 5 min., a minimum stability duration time of 10 min, and a maximum stage time of 180 min. The sample's equilibrium weight corresponding to each RH was recorded. A sorption isotherm is obtained by plotting equilibrium moisture content versus RH.

[2] = Estimated solubility of free base and salt forms in solvents (aliquot addition, visual)
Description: The experiments were carried out by adding the test solvent in aliquots to weighed portions of solid. Whether dissolution had occurred was judged by visual inspection after addition of each solvent aliquot. Solubility numbers were calculated by dividing the total amount of solvent used to dissolve the sample by the weight of the sample. […] The solubility number is expressed as “greater than or equal to” if dissolution occurred on addition of the first solvent aliquot.

[3] = Solid state stability of free base and salt forms under stress storage conditions;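 as to Physical stability: Physical stability judged by XRPD check of crystalline form at end of study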
Description: The solid samples were analyzed for both chemical and chiral stability.

Cl.Cl.O=C1CC[C@H](N2C(=O)c3cccc(NCc4ccc(CN5CC(N6CCOCC6)C5)cc4F)c3C2=O)C(=O)N1
hygroscopicity (DVS) ([1]; below 90% RH): highly hygroscopic
moisture gain (DVS) ([1]; from 80% RH to 90% RH): ~6.7%
water content released during desorption (DVS) ([1]; from 90 to 80% RH): ~7.0%
moisture picked up (DVS) ([1]; from dry up to 80% RH): ~8.0 % wt

O=C1CC[C@H](N2C(=O)c3cccc(NCc4ccc(CN5CC(N6CCOCC6)C5)cc4F)c3C2=O)C(=O)N1 [Compound 1 amorphous free base]
hygroscopicity (DVS) ([1]; below 75% RH): relatively high hygroscopicity
sorption/desorption reversibility (DVS) ([1]; during two full cycles): almost reversible
moisture picked up (DVS) ([1]; from dry up to 90% RH): ~6.0 % wt

O=C1CC[C@H](N2C(=O)c3cccc(NCc4ccc(CN5CC(N6CCOCC6)C5)cc4F)c3C2=O)C(=O)N1 [Free Base]
Solubility ([2]; 2-methyl tetrahydrofuran): 30000 µg/mL
Solubility ([2]; 2-propanol): <1000 µg/mL
Solubility ([2]; 95:5 2-PrOH/water): 2000 µg/mL
Solubility ([2]; 95:5 ACN/water): 27000 µg/mL
Solubility ([2]; 95:5 THF/water): 20000 µg/mL
Solubility ([2]; 95:5 acetone/water): 31000 µg/mL
Solubility ([2]; N-methyl pyrrolidone): 31000 µg/mL
Solubility ([2]; acetone): 52000 µg/mL
Solubility ([2]; acetonitrile): 33000 µg/mL
Solubility ([2]; anisole): 26000 µg/mL
Solubility ([2]; dichloromethane): 59000 µg/mL
Solubility ([2]; dimethylacetamide): 34000 µg/mL
Solubility ([2]; ethanol): 1000 µg/mL
Solubility ([2]; ethyl acetate): 33000 µg/mL
Solubility ([2]; ethyl formate): 30000 µg/mL
Solubility ([2]; isopropyl acetate): 6000 µg/mL
Solubility ([2]; methanol): 2000 µg/mL
Solubility ([2]; methyl ethyl ketone): 29000 µg/mL
Solubility ([2]; methyl tert-butyl ether): <1000 µg/mL
Solubility ([2]; nitromethane): 34000 µg/mL
Solubility ([2]; tetrahydrofuran): 28000 µg/mL
Solubility ([2]; toluene): 3000 µg/mL
Solubility ([2]; water): <1000 µg/mL

O=C1CC[C@H](N2C(=O)c3cccc(NCc4ccc(CN5CC(N6CCOCC6)C5)cc4F)c3C2=O)C(=O)N1 [Free base]
Chemical (%) ([3]; 40° C.): 98.44%
Chiral (%) ([3]; 40° C.): 99.03%
Chemical (%) ([3]; 40° C./80% RH): 98.56%
Chiral (%) ([3]; 40° C./80% RH): 99.02%
Chemical (%) ([3]; 60° C.): 95.80%
Chiral (%) ([3]; 60° C.): 98.69%
Physical stability ([3]; 60° C.): Unstable
Chemical (%) ([3]; 60° C./75% RH): 98.10%
Chiral (%) ([3]; 60° C./75% RH): 83.04%
Physical stability ([3]; 60° C./75% RH): Unstable
Chemical (%) ([3]; 70° C.): 85.68%
Chiral (%) ([3]; 70° C.): 95.57%
Physical stability ([3]; 70° C.): Unstable
Chemical (%) ([3]; 70° C./80% RH): 93.29%
Chiral (%) ([3]; 70° C./80% RH): 52.01%
Physical stability ([3]; 70° C./80% RH): Unstable
Chemical (%) ([3]; Ambient): 98.95%
Chiral (%) ([3]; Ambient): 99.16%

Cl.O=C1CC[C@H](N2C(=O)c3cccc(NCc4ccc(CN5CC(N6CCOCC6)C5)cc4F)c3C2=O)C(=O)N1 [HC1 salt]
Chemical (%) ([3]; 40° C.): 99.13%
Chiral (%) ([3]; 40° C.): 99.29%
Physical stability ([3]; 40° C.): Stable
Chemical (%) ([3]; 40° C./80% RH): 99.56%
Chiral (%) ([3]; 40° C./80% RH): 99.22%
Physical stability ([3]; 40° C./80% RH): Stable
Chemical (%) ([3]; 60° C.): 99.35%
Chiral (%) ([3]; 60° C.): 99.02%
Physical stability ([3]; 60° C.): Stable
Chemical (%) ([3]; 60° C./75% RH): 99.56%
Chiral (%) ([3]; 60° C./75% RH): 98.70%
Physical stability ([3]; 60° C./75% RH): Stable
Chemical (%) ([3]; 70° C.): 99.32%
Chiral (%) ([3]; 70° C.): 99.13%
Physical stability ([3]; 70° C.): Stable
Chemical (%) ([3]; 70° C./80% RH): 99.43%
Chiral (%) ([3]; 70° C./80% RH): 98.91%
Physical stability ([3]; 70° C./80% RH): Stable
Chemical (%) ([3]; Ambient): 99.08%
Chiral (%) ([3]; Ambient): 99.26%

Cl.O=C1CC[C@H](N2C(=O)c3cccc(NCc4ccc(CN5CC(N6CCOCC6)C5)cc4F)c3C2=O)C(=O)N1 [HCl Salt]
Solubility ([2]; 2-methyl tetrahydrofuran): <1000 µg/mL
Solubility ([2]; 2-propanol): <1000 µg/mL
Solubility ([2]; 95:5 2-PrOH/water): <1000 µg/mL
Solubility ([2]; 95:5 ACN/water): 3000 µg/mL
Solubility ([2]; 95:5 THF/water): 1000 µg/mL
Solubility ([2]; 95:5 acetone/water): <1000 µg/mL
Solubility ([2]; N-methyl pyrrolidone): 1000 µg/mL
Solubility ([2]; acetone): <1000 µg/mL
Solubility ([2]; acetonitrile): <1000 µg/mL
Solubility ([2]; anisole): <1000 µg/mL
Solubility ([2]; dichloromethane): <1000 µg/mL
Solubility ([2]; dimethylacetamide): 1000 µg/mL
Solubility ([2]; dimethylsulfoxide): 38000 µg/mL
Solubility ([2]; ethanol): <1000 µg/mL
Solubility ([2]; ethyl acetate): <1000 µg/mL
Solubility ([2]; ethyl formate): <1000 µg/mL
Solubility ([2]; isopropyl acetate): <1000 µg/mL
Solubility ([2]; methanol): 2000 µg/mL
Solubility ([2]; methyl ethyl ketone): <1000 µg/mL
Solubility ([2]; methyl tert-butyl ether): <1000 µg/mL
Solubility ([2]; nitromethane): <1000 µg/mL
Solubility ([2]; tetrahydrofuran): <1000 µg/mL
Solubility ([2]; toluene): <1000 µg/mL
Solubility ([2]; water): 2000 µg/mL

Fumarate
Chemical (%) ([3]; 40° C.): 98.64%
Chiral (%) ([3]; 40° C.): 95.39%
Physical stability ([3]; 40° C.): Stable
Chemical (%) ([3]; 40° C./80% RH): 98.69%
Chiral (%) ([3]; 40° C./80% RH): 94.55%
Physical stability ([3]; 40° C./80% RH): Stable
Chemical (%) ([3]; 60° C.): 97.43%
Chiral (%) ([3]; 60° C.): 95.54%
Physical stability ([3]; 60° C.): Stable
Chemical (%) ([3]; 60° C./75% RH): 98.19%
Chiral (%) ([3]; 60° C./75% RH): 93.14%
Physical stability ([3]; 60° C./75% RH): Stable
Chemical (%) ([3]; 70° C.): 95.94%
Chiral (%) ([3]; 70° C.): 95.11%
Physical stability ([3]; 70° C.): Stable
Chemical (%) ([3]; 70° C./80% RH): 93.79%
Chiral (%) ([3]; 70° C./80% RH): 91.52%
Physical stability ([3]; 70° C./80% RH): Stable
Chemical (%) ([3]; Ambient): 98.77%
Chiral (%) ([3]; Ambient): 95.82%
Solubility ([2]; 2-methyl tetrahydrofuran): <1000 µg/mL
Solubility ([2]; 2-propanol): <1000 µg/mL
Solubility ([2]; 95:5 2-PrOH/water): 1000 µg/mL
Solubility ([2]; 95:5 ACN/water): 2000 µg/mL
Solubility ([2]; 95:5 THF/water): 8000 µg/mL
Solubility ([2]; 95:5 acetone/water): 2000 µg/mL
Solubility ([2]; N-methyl pyrrolidone): 17000 µg/mL
Solubility ([2]; acetone): <1000 µg/mL
Solubility ([2]; acetonitrile): <1000 µg/mL
Solubility ([2]; anisole): <1000 µg/mL
Solubility ([2]; dichloromethane): <1000 µg/mL
Solubility ([2]; dimethylacetamide): 23000 µg/mL
Solubility ([2]; dimethylsulfoxide): 36000 µg/mL
Solubility ([2]; ethanol): <1000 µg/mL
Solubility ([2]; ethyl acetate): <1000 µg/mL
Solubility ([2]; ethyl formate): <1000 µg/mL
Solubility ([2]; isopropyl acetate): <1000 µg/mL
Solubility ([2]; methanol): 3000 µg/mL
Solubility ([2]; methyl ethyl ketone): <1000 µg/mL
Solubility ([2]; methyl tert-butyl ether): <1000 µg/mL
Solubility ([2]; nitromethane): <1000 µg/mL
Solubility ([2]; tetrahydrofuran): 1000 µg/mL
Solubility ([2]; toluene): <1000 µg/mL
Solubility ([2]; water): 2000 µg/mL

Tosylate
Chemical (%) ([3]; 40° C.): 99.18%
Chiral (%) ([3]; 40° C.): 98.52%
Physical stability ([3]; 40° C.): Stable
Chemical (%) ([3]; 40° C./80% RH): 98.84%
Chiral (%) ([3]; 40° C./80% RH): 98.48%
Physical stability ([3]; 40° C./80% RH): Stable
Chemical (%) ([3]; 60° C.): 99.01%
Chiral (%) ([3]; 60° C.): 98.46%
Physical stability ([3]; 60° C.): Stable
Chemical (%) ([3]; 60° C./75% RH): 96.76%
Chiral (%) ([3]; 60° C./75% RH): 98.10%
Physical stability ([3]; 60° C./75% RH): Stable
Chemical (%) ([3]; 70° C.): 98.58%
Chiral (%) ([3]; 70° C.): 98.43%
Physical stability ([3]; 70° C.): Stable
Chemical (%) ([3]; 70° C./80% RH): 95.73%
Chiral (%) ([3]; 70° C./80% RH): 97.64%
Physical stability ([3]; 70° C./80% RH): Stable
Chemical (%) ([3]; Ambient): 99.19%
Chiral (%) ([3]; Ambient): 98.49%
Solubility ([2]; 2-methyl tetrahydrofuran): <1000 µg/mL
Solubility ([2]; 2-propanol): <1000 µg/mL
Solubility ([2]; 95:5 2-PrOH/water): <1000 µg/mL
Solubility ([2]; 95:5 ACN/water): 17000 µg/mL
Solubility ([2]; 95:5 THF/water): 16000 µg/mL
Solubility ([2]; 95:5 acetone/water): 3000 µg/mL
Solubility ([2]; N-methyl pyrrolidone): 17000 µg/mL
Solubility ([2]; acetone): <1000 µg/mL
Solubility ([2]; acetonitrile): 1000 µg/mL
Solubility ([2]; anisole): <1000 µg/mL
Solubility ([2]; dichloromethane): 1000 µg/mL
Solubility ([2]; dimethylacetamide): 30000 µg/mL
Solubility ([2]; dimethylsulfoxide): 34000 µg/mL
Solubility ([2]; ethanol): <1000 µg/mL
Solubility ([2]; ethyl acetate): <1000 µg/mL
Solubility ([2]; ethyl formate): <1000 µg/mL
Solubility ([2]; isopropyl acetate): <1000 µg/mL
Solubility ([2]; methanol): 3000 µg/mL
Solubility ([2]; methyl ethyl ketone): <1000 µg/mL
Solubility ([2]; methyl tert-butyl ether): <1000 µg/mL
Solubility ([2]; nitromethane): 4000 µg/mL
Solubility ([2]; tetrahydrofuran): <1000 µg/mL
Solubility ([2]; toluene): <1000 µg/mL
Solubility ([2]; water): 2000 µg/mL
